Reference: publication PMC10337138 (Acta Neuropathologica Communications, 2023)

What was measured:
Settings in all cases: 1 mM ATP; inhibitor
AKT2 = AKT2 (Homo sapiens, UniProt P31751)
Protocol: (§1) Kinase selectivity panel Kinome profiling was conducted by AssayQuant Technologies (Marlboro, MA) using Sox chromophore technology and Sox-based peptide substrates developed for human kinases in a 384-well format. Compounds were tested at 1 µM in the presence of 1 mM ATP.

AKT3 = AKT3 (Homo sapiens, UniProt Q9Y243)
Protocol: as §1

ALK = ALK (Homo sapiens, UniProt Q9UM73)
Protocol: as §1

BUB1 = BUB1 (Homo sapiens, UniProt O43683)
Protocol: as §1

CAMK1D = CAMK1D (Homo sapiens, UniProt Q8IU85)
Protocol: as §1

CAMK2B = CAMK2B (Homo sapiens, UniProt Q13554)
CAMK2B, sequence (Q13554 whole entry): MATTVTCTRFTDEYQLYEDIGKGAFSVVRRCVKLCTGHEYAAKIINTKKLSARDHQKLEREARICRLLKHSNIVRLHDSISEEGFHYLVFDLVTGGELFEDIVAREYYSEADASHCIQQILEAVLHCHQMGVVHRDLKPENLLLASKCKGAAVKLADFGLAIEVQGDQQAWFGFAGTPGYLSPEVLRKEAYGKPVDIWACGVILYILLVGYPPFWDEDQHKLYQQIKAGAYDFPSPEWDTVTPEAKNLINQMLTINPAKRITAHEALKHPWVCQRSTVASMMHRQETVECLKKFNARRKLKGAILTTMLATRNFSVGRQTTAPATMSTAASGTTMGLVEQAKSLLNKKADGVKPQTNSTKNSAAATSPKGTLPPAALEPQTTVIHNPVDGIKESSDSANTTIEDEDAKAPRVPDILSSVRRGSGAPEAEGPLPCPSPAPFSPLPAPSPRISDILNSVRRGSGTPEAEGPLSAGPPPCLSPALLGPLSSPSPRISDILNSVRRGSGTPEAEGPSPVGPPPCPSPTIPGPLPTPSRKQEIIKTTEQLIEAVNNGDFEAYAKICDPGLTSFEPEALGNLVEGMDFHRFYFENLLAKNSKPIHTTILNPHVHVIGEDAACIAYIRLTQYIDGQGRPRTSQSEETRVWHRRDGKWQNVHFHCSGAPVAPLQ
Protocol: as §1

CDK14 = CDK14 (Homo sapiens, UniProt O94921)
Protocol: as §1

CDK18 = CDK18 (Homo sapiens, UniProt Q07002)
CDK18, sequence (Q07002 whole entry): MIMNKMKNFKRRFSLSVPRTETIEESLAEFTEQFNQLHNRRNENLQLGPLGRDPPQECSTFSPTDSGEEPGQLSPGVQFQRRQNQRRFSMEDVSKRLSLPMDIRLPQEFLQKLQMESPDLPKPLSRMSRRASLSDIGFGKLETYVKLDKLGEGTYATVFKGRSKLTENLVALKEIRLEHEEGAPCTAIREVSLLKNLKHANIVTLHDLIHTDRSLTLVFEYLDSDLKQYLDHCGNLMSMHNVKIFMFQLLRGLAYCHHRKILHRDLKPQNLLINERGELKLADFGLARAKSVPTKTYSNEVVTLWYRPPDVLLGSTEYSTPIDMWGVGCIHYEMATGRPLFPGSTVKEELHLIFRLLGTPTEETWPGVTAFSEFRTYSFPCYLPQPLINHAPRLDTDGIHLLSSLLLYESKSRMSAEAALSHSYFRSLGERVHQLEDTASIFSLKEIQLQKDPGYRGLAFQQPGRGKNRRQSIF
Protocol: as §1

CHAK1 = target: T1, CHAK1 (Homo sapiens, UniProt Q96QT4)
T1 construct: gene TRPM7
Protocol: as §1

CSNK1AL/CK1A2 = target: T2, CSNK1AL/CK1A2 (Homo sapiens, UniProt Q8N752)
T2 construct: gene CSNK1A1L
T2 sequence (Q8N752 whole entry): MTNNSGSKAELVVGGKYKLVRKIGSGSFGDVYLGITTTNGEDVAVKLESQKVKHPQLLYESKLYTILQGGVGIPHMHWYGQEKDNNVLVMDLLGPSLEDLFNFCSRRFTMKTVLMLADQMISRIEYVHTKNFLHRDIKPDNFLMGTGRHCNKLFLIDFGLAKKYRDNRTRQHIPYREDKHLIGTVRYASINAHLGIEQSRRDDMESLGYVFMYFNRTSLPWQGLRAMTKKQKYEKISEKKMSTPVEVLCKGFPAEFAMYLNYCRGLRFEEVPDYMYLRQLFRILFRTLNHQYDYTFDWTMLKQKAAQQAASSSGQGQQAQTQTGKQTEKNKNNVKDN
Protocol: as §1

CSNK2A2/CK2A2 = CSNK2A2/CK2A2 (Homo sapiens, UniProt P19784)
Protocol: as §1

DRAK2 = target: T3, DRAK2 (Homo sapiens, UniProt O94768)
T3 construct: gene STK17B
Protocol: as §1

DYRK4 = DYRK4 (Homo sapiens, UniProt Q9NR20)
Protocol: as §1

EPHA3 = EPHA3 (Homo sapiens, UniProt P29320)
Protocol: as §1

EPHA4 = EPHA4 (Homo sapiens, UniProt P54764)
EPHA4, sequence (P54764 whole entry): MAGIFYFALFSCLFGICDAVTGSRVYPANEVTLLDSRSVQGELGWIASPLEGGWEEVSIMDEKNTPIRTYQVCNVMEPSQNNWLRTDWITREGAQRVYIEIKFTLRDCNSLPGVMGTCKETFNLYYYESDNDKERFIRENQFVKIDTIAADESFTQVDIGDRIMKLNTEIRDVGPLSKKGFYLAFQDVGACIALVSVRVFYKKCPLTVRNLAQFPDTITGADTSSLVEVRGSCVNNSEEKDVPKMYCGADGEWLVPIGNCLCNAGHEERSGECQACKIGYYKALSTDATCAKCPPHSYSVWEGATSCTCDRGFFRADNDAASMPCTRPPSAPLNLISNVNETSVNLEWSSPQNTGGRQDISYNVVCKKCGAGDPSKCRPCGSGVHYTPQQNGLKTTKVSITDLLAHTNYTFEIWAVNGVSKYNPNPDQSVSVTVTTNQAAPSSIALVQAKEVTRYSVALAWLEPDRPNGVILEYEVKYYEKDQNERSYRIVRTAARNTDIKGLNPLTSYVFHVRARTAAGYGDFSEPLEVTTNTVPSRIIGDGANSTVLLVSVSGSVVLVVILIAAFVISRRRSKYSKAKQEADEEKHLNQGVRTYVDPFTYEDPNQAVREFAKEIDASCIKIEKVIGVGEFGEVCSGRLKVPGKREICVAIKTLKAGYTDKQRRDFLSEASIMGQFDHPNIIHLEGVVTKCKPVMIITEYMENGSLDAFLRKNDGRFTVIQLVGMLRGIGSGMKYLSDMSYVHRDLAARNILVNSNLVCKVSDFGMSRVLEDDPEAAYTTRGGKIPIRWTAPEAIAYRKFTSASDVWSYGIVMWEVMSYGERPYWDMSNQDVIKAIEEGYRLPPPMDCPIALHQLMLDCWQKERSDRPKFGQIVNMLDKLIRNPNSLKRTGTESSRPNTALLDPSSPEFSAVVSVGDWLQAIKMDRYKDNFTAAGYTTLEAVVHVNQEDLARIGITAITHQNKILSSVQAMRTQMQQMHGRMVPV
Protocol: as §1

FGFR1 = FGFR1 (Homo sapiens, UniProt P11362)
Protocol: as §1

FGFR3 = FGFR3 (Homo sapiens, UniProt P22607)
Protocol: as §1

FLT1 = FLT1 (Homo sapiens, UniProt P17948)
Protocol: as §1

FYNB = target: T4, FYNB (Homo sapiens, UniProt P06241)
T4 construct: gene FYN
Protocol: as §1

GRK7 = GRK7 (Homo sapiens, UniProt Q8WTQ7)
Protocol: as §1

JAK1(JH1) = JAK1(JH1) (Homo sapiens, UniProt P23458)
Protocol: as §1

MAK = MAK (Homo sapiens, UniProt P20794)
Protocol: as §1

MAP3K10 = MAP3K10 (Homo sapiens, UniProt Q02779)
Protocol: as §1

MAP3K5 = MAP3K5 (Homo sapiens, UniProt Q99683)
Protocol: as §1

MAP3K8 = MAP3K8 (Homo sapiens, UniProt P41279)
Protocol: as §1

MAPK1/ERK2 = MAPK1/ERK2 (Homo sapiens, UniProt P28482)
MAPK1/ERK2, sequence (P28482 whole entry): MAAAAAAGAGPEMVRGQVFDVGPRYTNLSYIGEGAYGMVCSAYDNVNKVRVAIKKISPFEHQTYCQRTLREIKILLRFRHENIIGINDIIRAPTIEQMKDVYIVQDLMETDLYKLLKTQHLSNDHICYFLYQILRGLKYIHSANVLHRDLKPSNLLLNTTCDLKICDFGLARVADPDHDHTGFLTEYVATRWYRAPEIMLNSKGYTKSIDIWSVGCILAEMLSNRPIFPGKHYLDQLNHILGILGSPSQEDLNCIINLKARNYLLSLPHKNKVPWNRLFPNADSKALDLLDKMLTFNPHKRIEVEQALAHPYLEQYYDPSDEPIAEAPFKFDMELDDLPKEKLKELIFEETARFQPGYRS
Protocol: as §1

NIM1 = target: T5, NIM1 (Homo sapiens, UniProt Q8IY84)
T5 construct: gene NIM1K
Protocol: as §1

NTRK1 = NTRK1 (Homo sapiens, UniProt P04629)
Protocol: as §1

PAK6 = PAK6 (Homo sapiens, UniProt Q9NQU5)
Protocol: as §1

PDGFRA = PDGFRA (Homo sapiens, UniProt P16234)
Protocol: as §1

PIM2 = PIM2 (Homo sapiens, UniProt Q9P1W9)
Protocol: as §1

PLK4 = PLK4 (Homo sapiens, UniProt O00444)
Protocol: as §1

PRKD2 = PRKD2 (Homo sapiens, UniProt Q9BZL6)
PRKD2, sequence (Q9BZL6 whole entry): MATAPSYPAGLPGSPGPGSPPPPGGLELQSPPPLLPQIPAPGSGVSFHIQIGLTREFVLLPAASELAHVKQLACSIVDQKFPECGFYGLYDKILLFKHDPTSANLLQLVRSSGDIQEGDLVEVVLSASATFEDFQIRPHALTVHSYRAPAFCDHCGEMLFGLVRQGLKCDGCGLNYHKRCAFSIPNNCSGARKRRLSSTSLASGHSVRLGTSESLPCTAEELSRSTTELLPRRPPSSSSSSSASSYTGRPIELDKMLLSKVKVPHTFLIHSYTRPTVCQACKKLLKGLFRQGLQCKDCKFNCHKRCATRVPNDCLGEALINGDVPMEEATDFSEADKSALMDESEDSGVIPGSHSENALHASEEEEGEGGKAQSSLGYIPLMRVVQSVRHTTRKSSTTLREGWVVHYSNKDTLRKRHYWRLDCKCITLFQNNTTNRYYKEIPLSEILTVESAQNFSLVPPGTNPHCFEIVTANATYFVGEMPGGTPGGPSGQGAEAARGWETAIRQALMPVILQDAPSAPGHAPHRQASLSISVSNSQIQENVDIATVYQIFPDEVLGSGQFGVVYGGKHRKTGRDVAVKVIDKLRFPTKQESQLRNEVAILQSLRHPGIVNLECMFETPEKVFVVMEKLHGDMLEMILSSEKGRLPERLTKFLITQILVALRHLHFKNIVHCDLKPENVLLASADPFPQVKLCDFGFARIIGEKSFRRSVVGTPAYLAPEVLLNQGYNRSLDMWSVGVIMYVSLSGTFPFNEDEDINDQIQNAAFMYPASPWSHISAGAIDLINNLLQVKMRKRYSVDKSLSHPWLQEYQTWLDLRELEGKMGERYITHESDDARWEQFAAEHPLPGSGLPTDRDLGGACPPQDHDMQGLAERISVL
Protocol: as §1

PRKDC/DNA-PK = PRKDC/DNA-PK (Homo sapiens, UniProt P78527)
Protocol: as §1

PTK6/BRK = PTK6/BRK (Homo sapiens, UniProt Q13882)
Protocol: as §1

RAF1 = RAF1 (Homo sapiens, UniProt P04049)
RAF1, sequence (P04049 whole entry): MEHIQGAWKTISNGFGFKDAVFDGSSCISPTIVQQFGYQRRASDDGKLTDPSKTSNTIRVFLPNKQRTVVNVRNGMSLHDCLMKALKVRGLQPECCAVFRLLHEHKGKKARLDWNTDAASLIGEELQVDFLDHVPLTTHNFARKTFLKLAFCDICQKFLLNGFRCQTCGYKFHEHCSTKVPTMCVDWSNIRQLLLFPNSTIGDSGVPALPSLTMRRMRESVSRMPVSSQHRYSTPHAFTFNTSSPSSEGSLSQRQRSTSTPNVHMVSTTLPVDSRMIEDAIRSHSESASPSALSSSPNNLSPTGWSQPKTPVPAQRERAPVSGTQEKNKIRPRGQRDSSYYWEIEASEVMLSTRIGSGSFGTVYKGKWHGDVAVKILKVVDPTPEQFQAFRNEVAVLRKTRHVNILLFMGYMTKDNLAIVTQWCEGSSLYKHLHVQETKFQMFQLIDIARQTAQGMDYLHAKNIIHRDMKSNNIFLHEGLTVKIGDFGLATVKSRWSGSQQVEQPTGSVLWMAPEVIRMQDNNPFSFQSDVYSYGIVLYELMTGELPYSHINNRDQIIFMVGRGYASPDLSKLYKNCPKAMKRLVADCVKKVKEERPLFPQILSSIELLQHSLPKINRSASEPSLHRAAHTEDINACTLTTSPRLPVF
Protocol: as §1

RPS6KA1/RSK1 = RPS6KA1/RSK1 (Homo sapiens, UniProt Q15418)
Protocol: as §1

STK11/LKB1 = STK11/LKB1 (Homo sapiens, UniProt Q15831)
Protocol: as §1

TEC = TEC (Homo sapiens, UniProt P42680)
Protocol: as §1

AKT2, sequence (P31751 whole entry): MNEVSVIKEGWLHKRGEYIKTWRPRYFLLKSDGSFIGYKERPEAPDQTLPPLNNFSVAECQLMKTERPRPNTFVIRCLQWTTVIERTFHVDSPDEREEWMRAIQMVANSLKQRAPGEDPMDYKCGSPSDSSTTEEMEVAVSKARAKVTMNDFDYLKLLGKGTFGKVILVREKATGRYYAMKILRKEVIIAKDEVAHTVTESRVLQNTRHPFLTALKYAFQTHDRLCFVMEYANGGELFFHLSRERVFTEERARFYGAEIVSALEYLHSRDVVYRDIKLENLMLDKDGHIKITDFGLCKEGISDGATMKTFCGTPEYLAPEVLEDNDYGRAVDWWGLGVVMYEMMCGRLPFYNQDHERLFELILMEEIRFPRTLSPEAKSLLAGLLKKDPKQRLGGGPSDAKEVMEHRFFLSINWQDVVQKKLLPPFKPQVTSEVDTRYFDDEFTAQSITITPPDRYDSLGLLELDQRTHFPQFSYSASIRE

In the case of `C=CC(=O)N1CCC[C@@H](n2nc(-c3ccc(Oc4ccccc4)cc3)c3c(N)ncnc32)C1` [Ibrutinib], the “1 µM GBD00276 (ibrutinib), % inhibition” value (AKT2) was 17.43%, the “1 µM GBD00276 (ibrutinib), % inhibition” value (AKT3) was 18.375% and the “1 µM GBD00276 (ibrutinib), % inhibition” value (ALK) was 3.723%. For the same compound, the “1 µM GBD00276 (ibrutinib), % inhibition” value (BUB1) was 26.62%, the “1 µM GBD00276 (ibrutinib), % inhibition” value (CAMK1D) was 1.984% and the “1 µM GBD00276 (ibrutinib), % inhibition” value (CAMK2B) was 4.39%. For the same compound, the “1 µM GBD00276 (ibrutinib), % inhibition” value (CDK14) was 3.829%, the “1 µM GBD00276 (ibrutinib), % inhibition” value (CDK18) was 6.584% and the “1 µM GBD00276 (ibrutinib), % inhibition” value (CHAK1) was -7.703%. The “1 µM GBD00276 (ibrutinib), % inhibition” value (CSNK1AL/CK1A2) was 14.53%, the “1 µM GBD00276 (ibrutinib), % inhibition” value (CSNK2A2/CK2A2) was -24.31% and the “1 µM GBD00276 (ibrutinib), % inhibition” value (DRAK2) was 1.899%. The “1 µM GBD00276 (ibrutinib), % inhibition” value (DYRK4) was 6.524%, the “1 µM GBD00276 (ibrutinib), % inhibition” value (EPHA3) was 12.32% and the “1 µM GBD00276 (ibrutinib), % inhibition” value (EPHA4) was -4.922%. For the same compound, the “1 µM GBD00276 (ibrutinib), % inhibition” value (FGFR1) was 21.97%, the “1 µM GBD00276 (ibrutinib), % inhibition” value (FGFR3) was 31.81% and the “1 µM GBD00276 (ibrutinib), % inhibition” value (FLT1) was 31.87%. The “1 µM GBD00276 (ibrutinib), % inhibition” value (FYNB) was 30.61%, the “1 µM GBD00276 (ibrutinib), % inhibition” value (GRK7) was 3.056% and the “1 µM GBD00276 (ibrutinib), % inhibition” value (JAK1(JH1)) was 19.49%. For the same compound, the “1 µM GBD00276 (ibrutinib), % inhibition” value (MAK) was 9.929%, the “1 µM GBD00276 (ibrutinib), % inhibition” value (MAP3K10) was -7.966% and the “1 µM GBD00276 (ibrutinib), % inhibition” value (MAP3K5) was -3.817%. For the same compound, the “1 µM GBD00276 (ibrutinib), % inhibition” value (MAP3K8) was -11.27%, the “1 µM GBD00276 (ibrutinib), % inhibition” value (MAPK1/ERK2) was -5.335% and the “1 µM GBD00276 (ibrutinib), % inhibition” value (NIM1) was 12.91%. The “1 µM GBD00276 (ibrutinib), % inhibition” value (NTRK1) was 11.58%, the “1 µM GBD00276 (ibrutinib), % inhibition” value (PAK6) was 14.55% and the “1 µM GBD00276 (ibrutinib), % inhibition” value (PDGFRA) was 34.54%. For the same compound, the “1 µM GBD00276 (ibrutinib), % inhibition” value (PIM2) was -3.683%, the “1 µM GBD00276 (ibrutinib), % inhibition” value (PLK4) was 7.389% and the “1 µM GBD00276 (ibrutinib), % inhibition” value (PRKD2) was -18.67%. The “1 µM GBD00276 (ibrutinib), % inhibition” value (PRKDC/DNA-PK) was 1.018%, the “1 µM GBD00276 (ibrutinib), % inhibition” value (PTK6/BRK) was 98.64% and the “1 µM GBD00276 (ibrutinib), % inhibition” value (RAF1) was -13.81%. For the same compound, the “1 µM GBD00276 (ibrutinib), % inhibition” value (RPS6KA1/RSK1) was 9.099%, the “1 µM GBD00276 (ibrutinib), % inhibition” value (STK11/LKB1) was -2.74% and the “1 µM GBD00276 (ibrutinib), % inhibition” value (TEC) was 98.943%.
